Consider two molecules from publication PMC9003190, “MeNINV1: An Alkaline/Neutral Invertase Gene of Manihot esculenta, Enhanced Sucrose Catabolism and Promoted Plant Vegetative Growth in Transgenic Arabidopsis” (Plants, 2022).

The target of data set [1] is T1, MeNINV1 (Manihot esculenta, UniProt G5DC09).
T1 construct: gene NINV1; full-length ORF in pDR195, expressed in invertase-deficient yeast SEY2102; crude enzyme supernatant, empty-vector control
T1 sequence (G5DC09 1-685): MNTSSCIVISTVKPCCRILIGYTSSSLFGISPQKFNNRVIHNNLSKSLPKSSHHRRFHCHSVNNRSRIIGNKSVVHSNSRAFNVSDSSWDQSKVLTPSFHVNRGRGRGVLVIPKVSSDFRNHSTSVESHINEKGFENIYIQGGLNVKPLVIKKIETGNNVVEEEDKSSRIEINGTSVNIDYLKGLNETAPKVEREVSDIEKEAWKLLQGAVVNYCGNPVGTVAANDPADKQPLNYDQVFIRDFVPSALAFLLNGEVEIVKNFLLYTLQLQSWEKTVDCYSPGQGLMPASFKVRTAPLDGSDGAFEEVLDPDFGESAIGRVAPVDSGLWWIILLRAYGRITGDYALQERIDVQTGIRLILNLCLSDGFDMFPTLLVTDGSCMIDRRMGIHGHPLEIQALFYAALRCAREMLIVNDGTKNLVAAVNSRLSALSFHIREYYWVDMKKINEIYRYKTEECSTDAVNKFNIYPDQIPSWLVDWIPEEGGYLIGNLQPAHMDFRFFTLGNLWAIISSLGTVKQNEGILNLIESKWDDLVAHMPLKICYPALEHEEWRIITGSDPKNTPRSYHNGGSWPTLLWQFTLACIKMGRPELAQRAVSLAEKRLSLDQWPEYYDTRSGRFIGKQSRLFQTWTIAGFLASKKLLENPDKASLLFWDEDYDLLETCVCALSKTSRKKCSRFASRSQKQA
Description: DNS reducing sugar assay, crude yeast extract. The format is biochemical. Particulars: product inhibition of sucrose hydrolysis; pH 6.5.

Substrate in data set [2]: OC[C@H]1O[C@@](CO)(O[C@H]2O[C@H](CO)[C@@H](O)[C@H](O)[C@H]2O)[C@@H](O)[C@@H]1O
As to the kind of experiment: DNS reducing sugar assay, crude yeast extract. Particulars: pH 6.5, optimum temperature 40 °C. Format: biochemical, Manihot esculenta.

As a reminder, the Km is the substrate concentration at which the rate is half of its maximum.

`OCC1(O)OC[C@@H](O)[C@@H](O)[C@@H]1O` (some centres unmarked) [fructose]: the “DNS reducing sugar assay, crude yeast extract” value in data set [1] is “The addition of fructose, a decomposition product of sucrose, to the reaction solution inhibited”.

B1: MeNINV1 (Manihot esculenta) (protein)
chain: T1 sequence (G5DC09 1-685)
notes: full-length ORF in pDR195, expressed in invertase-deficient yeast SEY2102; crude enzyme supernatant, empty-vector control
Consider B1, for which the Km in data set [2] was 10.59 mM.
